Measurements as given in patent US6960683B2, “Salt forms of poorly soluble probucol esters and ethers” (Atherogenics, Inc., priority 2002, dated 2005).
Where a name gives a salt, the structure may show the parent alone. Read-outs that look alike come from different tables or passages of the source.

Key:
Solubility in water = assay type: physicochemical; settings: for solubility: water, 25 °C
VCAM-1 = assay: In Vitro VCAM-1 Assay (ELISA of TNF-α-stimulated endothelial cells); assay type: cell-based, human; settings: HAEC or HPAEC cells stimulated with TNF-α (1 ng/ml), approx. 16 h, n = 3
Method: Cell Culture and compound dosing: Cultured primary human aortic (HAEC) or pulmonary (HPAEC) endothelial cells were obtained from Clonetics, Inc., and were used below passage 9. Cells were seeded in 96 well plates such that they would reach 90-95% confluency by the following day. On the following day the cells were stimulated with TNF-α (1 ng/ml) in the presence or absence of compounds dissolved in DMSO such that the final concentration of DMSO is 0.25% or less. To establish a dose curve for each compound, four concentrations in 2- to 5-fold increments were used. Cells were exposed to TNF-α and compounds for approximately 16 hours. The next day the cells were examined under microscope to score for visual signs of toxicity or cell stress.
Following 16 hr exposure to TNF-α and compound the media was discarded and the cells were washed once with Hanks Balanced Salt Solution (HBSS)/Phosphate buffered saline (PBS) (1:1). Primary antibodies against VCAM-1 (0.25 μg/ml in HBSS/PBS+5% FBS) were added and incubated for 30-60 minutes at 37° C. Cells were washed with HBSS/PBS three times, and secondary antibody Horse Radish Peroxidase (HRP)-conjugated goat anti-mouse IgG (1:500 in HBSS/PBS+5% FBS) were added and incubated for 30 minutes at 37° C. Cells were washed with HBSS/PBS four times and TMB substrate were added and incubated at room temperature in the dark until there was adequate development of blue color. The length of time of incubation was typically 5-15 minutes. 2N sulfuric acid was added to stop the color development and the data was collected by reading the absorbance on a BioRad ELISA plate reader at OD 450 nm. The results are expressed as IC50 values (the concentration (micromolar) of compound required to inhibit 50% of the maximal response of the control sample stimulated by TNF-α only). IC50's of the Examples and the free acid of the Examples are tabulated in VCAM-1 Table 1a.

[1] = meglumine salt of the Example, ˜25° C., read-out: Solubility (μg/ml) @ ˜25° C.
[2] = meglumine salt, value given in the synthesis example, read-out: Solubility in water
[3] = Homo sapiens, Endothelial cell, meglumine salt of the Example, read-out: IC50 (μM) (n = 3)
[4] = free acid of the Example, ˜25° C., read-out: Solubility, Free acid (μg/ml) @ ˜25° C.
[5] = Homo sapiens, Endothelial cell, free acid of the Example, read-out: IC50 (μM) of the free acid (n = 3)

Row | Solubility, Free acid (μg/ml) @ ˜25° C. (Solubility in water; free acid of the Example, ˜25° C.) | IC50 (VCAM-1; free acid of the Example, read-out: IC50 (μM) of the free acid (n = 3)) | solubility (Solubility in water; [1]) | solubility (Solubility in water; [2]) | IC50 (VCAM-1; [3]) | solubility (Solubility in water; [4]) | IC50 (VCAM-1; [5]) | SMILES
1 | <5 µg/mL | 7.7 µM | – | – | – | – | – | CC(C)(Sc1cc(C(C)(C)C)c(O)c(C(C)(C)C)c1)Sc1cc(C(C)(C)C)c(OC(=O)CCC(=O)O)c(C(C)(C)C)c1 [Example 1 free acid, Butanedioic acid, mono [4-[[1-[[3,5-bis(1,1-dimethylethyl)-4-hydroxyphenyl]thio]-1-methylethyl]thio]-2,6-bis(1,1-dimethylethyl)phenyl]ester, reference compound]
2 | – | – | 390 µg/mL | 390 µg/mL | 13 µM | – | – | CC(C)(Sc1cc(C(C)(C)C)c(O)c(C(C)(C)C)c1)Sc1cc(C(C)(C)C)c(OC(=O)CCC(=O)O)c(C(C)(C)C)c1 [Example 1, Butanedioic Acid, Mono [4-[[1-[[3,5-bis(1,1-dimethylethyl)-4-hydroxyphenyl]thio]-1-methylethyl]thio]-2,6-bis(1,1-dimethylethyl)phenyl]Ester Meglumine Salt]
3 | – | – | – | – | – | < 5 µg/mL | 10 µM | CC(C)(Sc1cc(C(C)(C)C)c(O)c(C(C)(C)C)c1)Sc1cc(C(C)(C)C)c(OCC(=O)O)c(C(C)(C)C)c1 [Example 2 free acid, Acetic acid, [4-[[1-[[3,5-bis(1,1-dimethylethyl)-4-hydroxyphenyl]thio]-1-methyl-ethyl]thio]-2,6-bis(1,1-dimethylethyl)phenoxy]-, reference compound]
4 | – | – | 1010 µg/mL | 1010 µg/mL | 6.5 µM | – | – | CC(C)(Sc1cc(C(C)(C)C)c(O)c(C(C)(C)C)c1)Sc1cc(C(C)(C)C)c(OCC(=O)O)c(C(C)(C)C)c1 [Example 2, Acetic Acid, [4-[[1-[[3,5-bis(1,1-dimethylethyl)-4-hydroxyphenyl]thio]-1-methylethyl]thio]-2,6-bis(1,1-dimethylethyl)phenoxy]-, Meglumine Salt]
5 | – | – | – | – | – | < 5 µg/mL | 11 µM | CC(C)(Sc1cc(C(C)(C)C)c(O)c(C(C)(C)C)c1)Sc1cc(C(C)(C)C)c(OCCCC(=O)O)c(C(C)(C)C)c1 [Example 3 free acid, Butanoic acid, 4-[4-[[1-[[3,5-bis(1,1-dimethylethyl)4-hydroxyphenyl]thio]-1-methyl-ethyl]thio]-2,6-bis(1,1-dimethylethyl)phenoxy]-, reference compound]
6 | – | – | 1910 µg/mL | 1910 µg/mL | 12 µM | – | – | CC(C)(Sc1cc(C(C)(C)C)c(O)c(C(C)(C)C)c1)Sc1cc(C(C)(C)C)c(OCCCC(=O)O)c(C(C)(C)C)c1 [Example 3, Butanoic Acid, 4-[4-[[1-[[3,5-bis(1,1-dimethylethyl)4-hydroxyphenyl]thio]-1-methylethyl]-thio]-2,6-bis(1,1-dimethylethyl)phenoxy]-, Meglumine Salt]
